Test results published in ChEMBL document CHEMBL1149319, “Phe-Gly dipeptidomimetics designed for the di-/tripeptide transporters PEPT1 and PEPT2: synthesis and biological investigations” (J Med Chem, 2004).
Peptide text beside a SMILES is read from it.

Tests used:
[1] = target: T1, Solute carrier family 15 member 1 (Homo sapiens, UniProt P46059); test: Concentration required to inhibit the maximum [14C]Gly-Sar uptake by human Intestinal peptide transporter PepT1 in Caco-2 cells; assay type: cell-based
T1 sequence (P46059 whole entry): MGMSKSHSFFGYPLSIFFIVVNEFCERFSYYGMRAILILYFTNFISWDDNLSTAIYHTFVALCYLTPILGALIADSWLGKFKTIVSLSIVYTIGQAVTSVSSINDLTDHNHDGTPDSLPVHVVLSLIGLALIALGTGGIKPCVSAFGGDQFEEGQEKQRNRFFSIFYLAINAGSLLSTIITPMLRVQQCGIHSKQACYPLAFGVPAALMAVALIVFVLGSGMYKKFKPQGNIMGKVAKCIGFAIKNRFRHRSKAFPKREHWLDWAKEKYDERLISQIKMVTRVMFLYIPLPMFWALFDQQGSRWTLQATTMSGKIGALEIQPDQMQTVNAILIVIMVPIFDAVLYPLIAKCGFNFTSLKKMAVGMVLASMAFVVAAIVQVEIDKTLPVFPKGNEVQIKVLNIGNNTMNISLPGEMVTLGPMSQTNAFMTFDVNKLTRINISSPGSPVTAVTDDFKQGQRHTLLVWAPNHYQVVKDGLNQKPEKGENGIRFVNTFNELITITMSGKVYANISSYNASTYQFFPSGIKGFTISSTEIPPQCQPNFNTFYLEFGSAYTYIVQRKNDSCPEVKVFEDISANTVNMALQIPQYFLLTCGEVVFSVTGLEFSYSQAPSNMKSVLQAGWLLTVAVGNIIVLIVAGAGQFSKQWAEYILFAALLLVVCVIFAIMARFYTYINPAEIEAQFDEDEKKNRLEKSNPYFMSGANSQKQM

[2] = target: T1, Solute carrier family 15 member 1; test: Affinity fo the compound against human Intestinal peptide transporter PepT1 in Caco-2 cells was measured as inhibition of [14C]Gly-Sar uptake; assay type: cell-based
[3] = Concentration required to inhibit the maximum [14C]Gly-Sar uptake by Renal peptide transporter PepT2 in SKPT cells; assay type: cell-based; conditions: Rattus norvegicus
[4] = Affinity against Renal peptide transporter PepT2 in SKPT cells was measured by the inhibition of [14C]Gly-Sar uptake; assay type: cell-based, Rattus norvegicus

Row | Compound | IC50 [1] | Ki [2] | IC50 [3] | Ki [4]
1 | N[C@@H](Cc1ccccc1)C(=O)CCC(=O)O | 0.4 mM | 0.4 mM | 0.0222 mM | 0.0188 mM
2 | N[C@@H](Cc1ccccc1)[C@H](O)/C=C/C(=O)O | 26.8 mM | 26.4 mM | 4.11 mM | 3.48 mM
3 | N[C@@H](Cc1ccccc1)[C@@H](O)CCC(=O)O | – | – | 8.18 mM | 6.92 mM
4 | N[C@@H](Cc1ccccc1)[C@H](O)CCC(=O)O | – | – | 8.8 mM | 7.45 mM
5 | N[C@@H](Cc1ccccc1)[C@@H](O)/C=C/C(=O)O | 40.5 mM | 39.8 mM | 1.59 mM | 1.35 mM
6 | N[C@@H](Cc1ccccc1)C(=O)NCC(=O)O (H-Phe-Gly-OH) | 0.2 mM | 0.2 mM | 0.0172 mM | 0.0146 mM
7 | CC1=C(C(=O)O)N2C(=O)[C@@H](NC(=O)[C@H](N)c3ccccc3)[C@H]2SC1 [CEPHALEXIN ANHYDROUS] | – | – | 0.0416 mM | 0.0352 mM
